Experimental data from ChEMBL document CHEMBL1909046, “DrugMatrix in vitro pharmacology data”.
*1 amine or outer side, *2 acyl side, *3 side chain or, on linkers, in order; H or OH if unused. Where a SMILES comes first, the peptide text is derived from it. Bridges are numbered along the chain shown (N, C = ends). Roman numbers before positions name the chains, in order. [ ]: non-standard residue; d: D form. Actinocin(1to9) = Cc1c2oc3c(C)ccc(C(=O)[*:2])c3nc-2c(C(=O)[*:1])c(N)c1=O; NMeV = CN[C@H](C(=O)O)C(C)C; Sar = CNCC(=O)O

What was measured:
[1] = molecular target: T1, Alpha-2A adrenergic receptor (Homo sapiens, UniProt P08913); assay type: cell membranes, Sf9, Membrane; also: in other assays of this panel Not Active means under 50% inhibition at 10 µM
T1 sequence (P08913 whole entry): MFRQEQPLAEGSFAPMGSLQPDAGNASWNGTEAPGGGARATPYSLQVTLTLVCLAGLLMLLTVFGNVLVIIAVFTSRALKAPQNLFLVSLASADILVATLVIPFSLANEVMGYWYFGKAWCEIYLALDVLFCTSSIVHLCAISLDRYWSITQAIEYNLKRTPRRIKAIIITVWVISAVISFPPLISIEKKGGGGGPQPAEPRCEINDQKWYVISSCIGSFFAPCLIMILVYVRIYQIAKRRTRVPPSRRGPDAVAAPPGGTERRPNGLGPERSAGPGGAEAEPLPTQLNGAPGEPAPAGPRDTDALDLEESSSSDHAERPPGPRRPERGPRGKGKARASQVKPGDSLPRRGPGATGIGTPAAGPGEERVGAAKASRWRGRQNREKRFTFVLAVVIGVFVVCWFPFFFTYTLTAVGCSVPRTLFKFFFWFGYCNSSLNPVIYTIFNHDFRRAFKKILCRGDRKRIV

Carbonic anhydrase 2 = Carbonic anhydrase 2 (Homo sapiens, UniProt P00918); test: DRUGMATRIX: Carbonic Anhydrase II enzyme inhibition (substrate: 4-Nitrophenyl acetate (4-NPA)); assay type: tissue-based, Erythrocyte; conditions: erythrocyte; Not Active = under 50% inhibition at 10 µM
Histamine H2 receptor = Histamine H2 receptor (Homo sapiens, UniProt P25021); assay type: cell membranes, CHO-K1, Membrane; conditions: cho-k1; also: in other assays of this panel Not Active means under 50% inhibition at 10 µM
Chain of Histamine H2 receptor (P25021 whole entry): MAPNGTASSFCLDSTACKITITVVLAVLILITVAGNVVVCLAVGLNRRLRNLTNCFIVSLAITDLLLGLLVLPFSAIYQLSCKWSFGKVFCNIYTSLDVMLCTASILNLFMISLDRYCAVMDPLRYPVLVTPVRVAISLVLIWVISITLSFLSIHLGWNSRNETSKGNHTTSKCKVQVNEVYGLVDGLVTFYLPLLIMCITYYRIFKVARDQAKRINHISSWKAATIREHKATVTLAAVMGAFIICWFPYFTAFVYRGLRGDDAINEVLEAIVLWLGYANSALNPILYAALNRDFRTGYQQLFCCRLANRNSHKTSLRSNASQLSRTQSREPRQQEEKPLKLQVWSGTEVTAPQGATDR

[2] = molecular target: T2, Muscarinic acetylcholine receptor M4 (Homo sapiens, UniProt P08173); assay type: cell membranes, CHO-K1, Membrane; conditions: cho-k1; also: in other assays of this panel Not Active means under 50% inhibition at 10 µM
T2 sequence (P08173 whole entry): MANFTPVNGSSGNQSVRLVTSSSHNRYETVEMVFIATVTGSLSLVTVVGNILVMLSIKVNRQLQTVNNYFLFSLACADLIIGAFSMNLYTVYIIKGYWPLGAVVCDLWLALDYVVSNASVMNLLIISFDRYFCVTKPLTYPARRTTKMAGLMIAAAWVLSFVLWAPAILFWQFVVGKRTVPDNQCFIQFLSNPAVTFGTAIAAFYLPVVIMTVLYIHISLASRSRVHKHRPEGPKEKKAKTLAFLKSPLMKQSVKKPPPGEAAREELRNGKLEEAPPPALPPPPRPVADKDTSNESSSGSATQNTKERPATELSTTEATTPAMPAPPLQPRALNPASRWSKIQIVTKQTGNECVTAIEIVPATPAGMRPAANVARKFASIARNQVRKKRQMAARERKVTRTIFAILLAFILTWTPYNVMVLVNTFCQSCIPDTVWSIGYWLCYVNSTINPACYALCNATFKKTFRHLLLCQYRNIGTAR

[3] = molecular target: T3, Muscarinic acetylcholine receptor M5 (Homo sapiens, UniProt P08912); assay type: cell membranes, CHO-K1, Membrane; conditions: cho-k1; also: in other assays of this panel Not Active means under 50% inhibition at 10 µM
T3 sequence (P08912 whole entry): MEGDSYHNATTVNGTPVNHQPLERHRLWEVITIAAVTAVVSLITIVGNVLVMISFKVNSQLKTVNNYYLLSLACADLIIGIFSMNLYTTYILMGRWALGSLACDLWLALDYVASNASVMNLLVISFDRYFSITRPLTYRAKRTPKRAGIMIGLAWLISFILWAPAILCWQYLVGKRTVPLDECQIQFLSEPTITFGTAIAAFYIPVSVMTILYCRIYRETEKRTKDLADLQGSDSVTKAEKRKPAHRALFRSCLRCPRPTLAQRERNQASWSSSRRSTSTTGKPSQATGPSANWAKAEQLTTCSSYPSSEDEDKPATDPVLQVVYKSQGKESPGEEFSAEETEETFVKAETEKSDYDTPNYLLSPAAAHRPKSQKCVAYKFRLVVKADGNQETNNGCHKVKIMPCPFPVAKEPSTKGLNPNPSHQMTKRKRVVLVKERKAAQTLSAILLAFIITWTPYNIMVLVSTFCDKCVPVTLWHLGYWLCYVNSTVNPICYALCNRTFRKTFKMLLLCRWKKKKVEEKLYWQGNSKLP

CADMIUM ACETATE
4.56 µM: IC50 ([1]; sf9, read-out: IC50)
Not Active: IC50 (Carbonic anhydrase 2) | Ki (Carbonic anhydrase 2) | IC50 (Histamine H2 receptor) | Ki (Histamine H2 receptor) | IC50 [2] | Ki [2] | IC50 [3] | Ki [3]

C[C@H]1O[C@@H](O[C@H]2[C@@H](O)C[C@H](O[C@H]3[C@@H](O)C[C@H](O[C@H]4CC[C@@]5(C)[C@H](CC[C@@H]6[C@@H]5C[C@@H](O)[C@]5(C)[C@@H](C7=CC(=O)OC7)CC[C@]65O)C4)O[C@@H]3C)O[C@@H]2C)C[C@H](O)[C@@H]1O [DIGOXIN]
Not Active: IC50 ([1]; sf9) | IC50 (Carbonic anhydrase 2) | IC50 (Histamine H2 receptor) | IC50 [2] | IC50 [3]

Cc1c2oc3c(C)ccc(C(=O)N[C@@H]4C(=O)N[C@H](C(C)C)C(=O)N5CCC[C@H]5C(=O)N(C)CC(=O)N(C)[C@@H](C(C)C)C(=O)O[C@@H]4C)c3nc-2c(C(=O)N[C@@H]2C(=O)N[C@H](C(C)C)C(=O)N3CCC[C@H]3C(=O)N(C)CC(=O)N(C)[C@@H](C(C)C)C(=O)O[C@@H]2C)c(N)c1=O [DACTINOMYCIN] (I: T[dV]P[Sar][NMeV] / II: T[dV]P[Sar][NMeV]; ester I:1-I:C, II:1-II:C; linker I:N-II:N via Actinocin(1to9))
Not Active: IC50 ([1]; sf9) | IC50 (Carbonic anhydrase 2) | IC50 (Histamine H2 receptor) | IC50 [2] | IC50 [3]

C=C(C)C1(O)OC(=O)C=C1OC (configuration not stated) [PENICILLIC ACID]
Not Active: IC50 ([1]; sf9) | IC50 (Carbonic anhydrase 2) | IC50 (Histamine H2 receptor) | IC50 [2] | IC50 [3]

CN(Cc1ccc(C(C)(C)C)cc1)Cc1cccc2ccccc12 [BUTENAFINE]
3.64 µM: IC50 ([1]; read-out: IC50)
1.37 µM: Ki ([1]; read-out: Ki)
Not Active: IC50 (Carbonic anhydrase 2) | IC50 (Histamine H2 receptor) | IC50 [2] | IC50 [3]

NC(=O)N1c2ccccc2CCc2ccccc21
Not Active: IC50 ([1]; sf9) | IC50 (Carbonic anhydrase 2) | IC50 (Histamine H2 receptor) | IC50 [2] | IC50 [3]

Cc1onc(-c2ccccc2Cl)c1C(=O)N[C@@H]1C(=O)N2[C@@H]1SC(C)(C)[C@@H]2C(=O)O [CLOXACILLIN]
Not Active: IC50 ([1]; sf9) | IC50 (Carbonic anhydrase 2) | IC50 (Histamine H2 receptor) | IC50 [2] | IC50 [3]

COc1ccc(C[C@H]2NC[C@H](O)[C@H]2OC(C)=O)cc1 [ANISOMYCIN]
Not Active: IC50 ([1]; sf9) | Ki ([1]; sf9) | IC50 (Carbonic anhydrase 2) | Ki (Carbonic anhydrase 2) | IC50 (Histamine H2 receptor) | Ki (Histamine H2 receptor) | IC50 [2] | Ki [2] | IC50 [3] | Ki [3]

CCn1cc(C(=O)O)c(=O)c2cc(F)c(N3CCNCC3)cc21 [NORFLOXACIN]
Not Active: IC50 ([1]; sf9) | IC50 (Carbonic anhydrase 2) | IC50 (Histamine H2 receptor) | IC50 [2] | IC50 [3]

CCC1(c2ccc(N)cc2)CCC(=O)NC1=O (configuration not stated) [AMINOGLUTETHIMIDE]
Not Active: IC50 ([1]; sf9) | IC50 (Carbonic anhydrase 2) | IC50 (Histamine H2 receptor) | IC50 [2] | IC50 [3]

Cc1ccc(/N=C/N(C)/C=N/c2ccc(C)cc2C)c(C)c1 [AMITRAZ]
Not Active: IC50 (Carbonic anhydrase 2) | IC50 (Histamine H2 receptor) | IC50 [2] | IC50 [3]

Cc1ccc(N(CC2=NCCN2)c2cccc(O)c2)cc1 [PHENTOLAMINE]
Not Active: IC50 (Carbonic anhydrase 2) | IC50 (Histamine H2 receptor) | IC50 [2] | IC50 [3]

CNNCc1ccc(C(=O)NC(C)C)cc1 [PROCARBAZINE]
Not Active: IC50 ([1]; sf9) | IC50 (Carbonic anhydrase 2) | IC50 (Histamine H2 receptor) | IC50 [2] | IC50 [3]

CN(C)c1nc(N(C)C)nc(N(C)C)n1 [ALTRETAMINE]
Not Active: IC50 ([1]; sf9) | IC50 (Carbonic anhydrase 2) | IC50 (Histamine H2 receptor) | IC50 [2] | IC50 [3]

CN(C)CCCN1c2ccccc2Sc2ccc(Cl)cc21 [CHLORPROMAZINE]
Not Active: IC50 (Carbonic anhydrase 2)

Clc1cccc(Cl)c1NC1=NCCN1 [CLONIDINE]
Not Active: IC50 (Carbonic anhydrase 2) | IC50 (Histamine H2 receptor) | IC50 [2] | IC50 [3]

CCOC(=O)C1=C(COCCN)NC(C)=C(C(=O)OC)C1c1ccccc1Cl (configuration not stated) [AMLODIPINE]
Not Active: IC50 (Carbonic anhydrase 2) | IC50 (Histamine H2 receptor) | IC50 [2] | IC50 [3]
